Measurements as given in patent publication US20090022803A1, “Oral Formulations For Delivery of Catecholic Butanes Including Ndga Compounds” (priority 2005, published 2009).
Read-outs that look alike come from different tables or passages of the source.

Format: physicochemical
Protocol: A 10 mL solution of M4N at a concentration of about 10 mg/mL in 40% BP-β-CD was made as follows. About 10 mL of the 40% HP-β-CD solution were added to a glass beaker containing a stir bar. The beaker was placed on a magnetic plate and the stir bar was set to stir at medium speed. About […] of M4N were slowly added to the 40% HP-β-CD in the center of the beaker with the aid of a spatula. The M4N/40% HP-β-CD mixture was stirred for 2 hr or until all M4N was uniformly suspended without any clumps being present. The M4N/40% HP-β-CD mixture was optionally heated at 80° C. for about 30 min. (or longer if a larger volume of solution was desired, for example, 1 hr at 80° C. for 100 mL of the M4N/HP-β-CD mixture), or longer as needed to ensure complete dissolution of M4N. […] The final M4N/40% HP-β-CD solution was stored at room temperature and was kept protected from light. This process may be scaled up or down to obtain the requisite volume or concentration of M4N. Formulations containing M4N in other cyclodextrin solutions may be similarly made, such as, for example, by substituting HP-β-CD in the process described above with other cyclodextrins. […]
A 10 mL solution of M4N at a concentration of about 10 mg/mL in 50% HP-β-CD/0.5% HPMC was made as follows. About 10 mL of the 50% HP-β-CD/0.5% HPMC solution were added to a glass beaker containing a stir bar. The beaker was placed on a magnetic plate and the stir bar was set to stir at medium speed. About 100 mg of M4N were slowly added to the 50% HP-β-CD/0.5% HPMC in the center of the beaker with the aid of a spatula. The M4N/50% HP-β-CD/0.5% HPMC mixture was stirred for 24 hr or until all M4N was uniformly suspended without any clumps being present. The M4N/50% HP-β-CD/0.5% HPMC mixture was heated at about 90° C. for about 30 min. (or longer if a larger volume of solution was desired, for example, 1 hr at 90° C. for 500 mL of the M4N/50% HP-β-CD/0.5% HPMC mixture), or longer as needed to ensure complete dissolution of M4N. […] The final M4N/50% HP-β-CD/0.5% HPMC solution was stored at room temperature and was kept protected from light.
A 10 mL solution of M4N at a concentration of about 20 mg/mL in 5% EC (w/v) (the “EC formulation”) was made as follows. About 10 mL of 5% EC formulation, made as described above, were added to a glass beaker containing a stir bar. The beaker was placed on a magnetic plate and the stir bar was set to stir at medium speed, and covered with a round Teflon® cover. About 200 mg of M4N were slowly added to the 5% EC formulation in the center of the beaker with the aid of a spatula to prevent M4N from sticking to the beaker wall. The M4N/EC mixture was stirred for 2 hr or until all M4N had dissolved or was uniformly suspended without any clumps being present. The M4N/EC mixture was heated at about 60° C. for about 30 min. (or longer if a larger volume of solution was desired, for example, 1 hr at 60° C. for 500 mL of the M4N/EC mixture), or longer as needed to ensure complete dissolution of M4N. […] The final M4N/EC solution was stored at room temperature and was kept protected from light.
A 10 mL solution of M4N at a concentration of about 50 mg/mL in sesame oil was made as follows. About 10 mL of sesame oil were added to a glass beaker containing a stir bar. The beaker was placed on a magnetic plate and the stir bar was set to stir at medium speed. About 500 mg of M4N were slowly added to the sesame oil in the center of the beaker with the aid of a spatula to prevent M4N from sticking to the beaker wall. The M4N/sesame oil mixture was stirred for about 2 hr or until all M4N had dissolved or was uniformly suspended without any clump being present. The M4N/sesame oil mixture was heated at about 60° C. for about 30 min. (or longer if a larger volume of solution was desired, for example, 1 hr at 60° C. for 500 mL of the M4N/sesame oil mixture), or longer as need to ensure complete dissolution of M4N. […]

[1] = M4N 13.3 mg/mL in 27% HP-β-CD, 33% PEG 400 (v/v)
[2] = M4N 13.3 mg/mL in 27% HP-β-CD, 33% Tween ® 80 (v/v)
[3] = M4N 16.7 mg/mL in 13% HP-β-CD, 67% PEG 300 (v/v)
[4] = M4N 19.3 mg/mL in 10% HP-β-CD, 77% PEG 300 (v/v)
[5] = M4N 50 mg/mL in 50% HP-β-CD, 1.25% PVP (w/v)
Throughout, for Dissolution After Cool Down: key: N represents 'No'; Y represents 'Yes.'.

SMILES: COc1ccc(C[C@@H](C)[C@@H](C)Cc2ccc(OC)c(OC)c2)cc1OC [Formulation M4N, meso-1,4-bis(3,4-dimethoxyphenyl)-2,3-dimethylbutane]
- Dissolution After Cool Down [1]: Y
- Dissolution After Rotation [1]: N
- Dissolution After Heating at X° C. (M4N 13.3 mg/mL in 27% HP-β-CD, 33% PEG 400 (v/v), 60°): Y at 60°
- Dissolution After Cool Down [2]: N
- Dissolution After Rotation [2]: N
- Dissolution After Heating at X° C. (M4N 13.3 mg/mL in 27% HP-β-CD, 33% Tween ® 80 (v/v), 60°): Y at 60°
- Dissolution After Rotation (M4N 14 mg/mL in 40% HP-β-CD): N
- Dissolution After Heating at X° C. (M4N 14 mg/mL in 40% HP-β-CD, 80°): N at 80°
- Dissolution After Rotation (M4N 16 mg/mL in 40% HP-β-CD): N
- Dissolution After Heating at X° C. (M4N 16 mg/mL in 40% HP-β-CD, 80°): N at 80°
- Dissolution After Cool Down [3]: N
- Dissolution After Rotation [3]: N
- Dissolution After Heating at X° C. (M4N 16.7 mg/mL in 13% HP-β-CD, 67% PEG 300 (v/v), 60°): Y at 60°
- Dissolution After Cool Down [4]: N
- Dissolution After Rotation [4]: N
- Dissolution After Heating at X° C. (M4N 19.3 mg/mL in 10% HP-β-CD, 77% PEG 300 (v/v), 60°): Y at 60°
- Dissolution After Cool-Down (M4N 20 mg/mL in 5% EC in EtOH): Y
- Dissolution After Rotation (M4N 20 mg/mL in 5% EC in EtOH): N
- Dissolution After Rotation (M4N 20 mg/mL in 30% HP-β-CD): N
- Dissolution After Heating at X° C. (M4N 20 mg/mL in 30% HP-β-CD, 90°): N at 90°
- Dissolution After Rotation (M4N 20 mg/mL in 40% HP-β-CD): N
- Dissolution After Heating at X° C. (M4N 20 mg/mL in 40% HP-β-CD, 80°): N at 80°
- Dissolution After Rotation (M4N 20 mg/mL in 50% HP-β-CD): N
- Dissolution After Rotation (M4N 20 mg/mL in 50% HP-β-CD, 0.5% CMC): Suspension
- Dissolution After Rotation (M4N 20 mg/mL in 50% HP-β-CD, 0.5% HPMC, other experiment, no heat): Suspension
- Dissolution After Heating at X° C. (M4N 20 mg/mL in 50% HP-β-CD, 90°): N at 90°
- Dissolution After Cool-Down (M4N 20 mg/mL in Corn Oil): Y
- Dissolution After Cool-Down (M4N 20 mg/mL in Sesame Oil): Y
- Dissolution After Cool-Down (M4N 24.3 mg/mL in 75% Sesame Oil, 9% Tween ® 20, 16% Glycerol): Y
- Dissolution After Cool-Down (M4N 29 mg/mL in 89% Sesame Oil, 11% Tween ® 20): Y
- Dissolution After Cool-Down (M4N 30 mg/mL in 5% EC in EtOH): N
- Dissolution After Rotation (M4N 30 mg/mL in 5% EC in EtOH): N
- Dissolution After Cool-Down (M4N 30 mg/mL in Olive Oil): N
- Dissolution After Cool-Down (M4N 30 mg/mL in Sesame Oil): Y
- Dissolution After Cool-Down (M4N 30 mg/mL in Soybean Oil): N
- Dissolution After Cool-Down (M4N 40 mg/mL in 50% Peppermint Oil, 50% PEG 300): Y
- Dissolution After Cool-Down (M4N 40 mg/mL in 50% Peppermint Oil, 50% PEG 400): Y
- Dissolution After Cool-Down (M4N 40 mg/mL in 50% Peppermint Oil, 50% Sesame Oil): Y
- Dissolution After Cool-Down (M4N 40 mg/mL in 50% Peppermint Oil, 50% Tween ® 20): Y
- Dissolution After Cool-Down (M4N 40 mg/mL in 85% Sesame Oil, 15% Tween ® 20): N
- Dissolution After Cool-Down (M4N 40 mg/mL in Corn Oil): Y
- Dissolution After Cool-Down (M4N 40 mg/mL in Peppermint Oil): Y
- Dissolution After Rotation (M4N 50 mg/mL in 2.3% HPMC): N
- Dissolution After Cool-Down (M4N 50 mg/mL in 5% EC in EtOH): N
- Dissolution After Rotation (M4N 50 mg/mL in 5% EC in EtOH): N
- Dissolution After Rotation (M4N 50 mg/mL in 15% α-CD): N
- Dissolution After Heating at X° C. (M4N 50 mg/mL in 15% α-CD, 90°): N at 90°
- Dissolution After Rotation (M4N 50 mg/mL in 20% HP-β-CD in saline): N
- Dissolution After Rotation (M4N 50 mg/mL in 30% HP-β-CD): N
- Dissolution After Heating at X° C. (M4N 50 mg/mL in 30% HP-β-CD, 90°): N at 90°
- Dissolution After Rotation (M4N 50 mg/mL in 40% HP-β-CD): N
- Dissolution After Heating at X° C. (M4N 50 mg/mL in 40% HP-β-CD, 80°): N at 80°
- Dissolution After Rotation (M4N 50 mg/mL in 50% HP-β-CD): N
- Dissolution After Rotation (M4N 50 mg/mL in 50% HP-β-CD, 0.5% HPMC): N
- Dissolution After Rotation (M4N 50 mg/mL in 50% HP-β-CD, 0.5% HPMC, other experiment, no heat): Suspension
- Dissolution After Heating at X° C. [5]: N
- Dissolution After Rotation [5]: N
- Dissolution After Heating at X° C. (M4N 50 mg/mL in 50% HP-β-CD, 90°): N at 90°
- Dissolution After Cool-Down (M4N 50 mg/mL in Camillia Oil): N
